Reference: patent US8669274B2, “Metalloenzyme inhibitor compounds” (Viamet Pharmaceuticals, Inc., priority 2010, dated 2014)

Assays:
[1] = target: T1, CYP17 (Rattus norvegicus, UniProt P11715); experiment: Inhibition of CYP17 (pooled rat testicular microsomes); assay type: biochemical
T1 construct: from tissue; host or cells: pooled rat testicular microsomes
T1 sequence (P11715 1-507): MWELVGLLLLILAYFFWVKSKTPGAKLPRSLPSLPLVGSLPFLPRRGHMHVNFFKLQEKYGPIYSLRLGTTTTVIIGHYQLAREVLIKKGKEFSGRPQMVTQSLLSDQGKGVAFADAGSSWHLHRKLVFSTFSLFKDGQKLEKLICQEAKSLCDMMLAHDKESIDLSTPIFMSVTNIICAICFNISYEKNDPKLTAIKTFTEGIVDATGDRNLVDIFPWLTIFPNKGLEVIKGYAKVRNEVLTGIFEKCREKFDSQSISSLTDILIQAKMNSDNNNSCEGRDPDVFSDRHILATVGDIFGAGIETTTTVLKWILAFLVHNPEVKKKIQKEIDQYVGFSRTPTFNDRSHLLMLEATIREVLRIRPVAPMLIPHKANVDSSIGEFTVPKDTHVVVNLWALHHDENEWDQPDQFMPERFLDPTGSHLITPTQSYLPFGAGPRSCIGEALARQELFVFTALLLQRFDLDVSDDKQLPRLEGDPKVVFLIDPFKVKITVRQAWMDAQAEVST
Description: CYP17 activity was assayed according to the following procedure. […] The individual test compound and isozyme inhibitor solutions were then diluted 20-fold with deionized water (50:950 v/v) to concentrations of 135, 27, 4.5, 0.9, 0.15, 0.03 and 0.005 μM. The percent of organic solvent attributable to the test compound or inhibitor mixture in the final reaction mixture is 1%. Pooled rat testicular microsome suspension (20 mg/mL) was diluted with phosphate buffer to obtain a 1.25 mg/mL suspension. A solution of NADPH was prepared in phosphate buffer at a concentration of 2.5×. A stock solution of the substrate was prepared in DMSO:MeCN (50:50 v/v), mixed, and diluted in phosphate buffer to obtain a single solution containing the substrate at 5 μM. The percent of organic solvent attributable to substrate mixture in the final reaction mixture is 1%. Substrate solution and microsome suspension were combined in a 1:1 volume ratio, mixed, and distributed to reaction wells of a PCR plate. Individual test compound or the inhibitor solution at each concentration was added to the wells and mixed by repetitive aspirate/dispense cycles. For active controls, blank test compound diluent was added in place of test compound solution. Reaction mixtures were allowed to equilibrate at 37° C. for approximately two minutes before adding NADPH solution to initiate reaction, followed by pipette mixing of reaction mixture.

[2] = target: CYP2C9 (Homo sapiens, UniProt P11712); experiment: Inhibition of liver cytochrome P450 enzymes (pooled human liver microsomes), CYP2C9
[3] = target: CYP3A4 (Homo sapiens, UniProt P08684); experiment: Inhibition of liver cytochrome P450 enzymes (pooled human liver microsomes), CYP3A4
[4] = target: CYP2C19 (Homo sapiens, UniProt P33261); experiment: Inhibition of liver cytochrome P450 enzymes (pooled human liver microsomes), CYP2C19
Sequence of CYP2C19 (P33261 whole entry): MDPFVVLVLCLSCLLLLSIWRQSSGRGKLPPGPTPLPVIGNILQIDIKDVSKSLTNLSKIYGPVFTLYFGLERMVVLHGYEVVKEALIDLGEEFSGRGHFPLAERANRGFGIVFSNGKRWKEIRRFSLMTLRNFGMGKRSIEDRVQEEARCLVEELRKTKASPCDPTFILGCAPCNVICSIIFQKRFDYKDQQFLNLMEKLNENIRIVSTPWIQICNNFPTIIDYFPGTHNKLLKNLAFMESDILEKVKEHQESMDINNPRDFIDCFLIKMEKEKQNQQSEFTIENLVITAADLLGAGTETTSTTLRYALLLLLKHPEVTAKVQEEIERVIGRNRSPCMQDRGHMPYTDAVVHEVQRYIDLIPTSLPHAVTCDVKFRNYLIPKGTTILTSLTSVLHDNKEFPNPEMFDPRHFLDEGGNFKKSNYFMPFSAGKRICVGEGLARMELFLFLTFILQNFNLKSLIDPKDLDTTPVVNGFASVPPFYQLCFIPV

Sequence of CYP3A4 (P08684 whole entry): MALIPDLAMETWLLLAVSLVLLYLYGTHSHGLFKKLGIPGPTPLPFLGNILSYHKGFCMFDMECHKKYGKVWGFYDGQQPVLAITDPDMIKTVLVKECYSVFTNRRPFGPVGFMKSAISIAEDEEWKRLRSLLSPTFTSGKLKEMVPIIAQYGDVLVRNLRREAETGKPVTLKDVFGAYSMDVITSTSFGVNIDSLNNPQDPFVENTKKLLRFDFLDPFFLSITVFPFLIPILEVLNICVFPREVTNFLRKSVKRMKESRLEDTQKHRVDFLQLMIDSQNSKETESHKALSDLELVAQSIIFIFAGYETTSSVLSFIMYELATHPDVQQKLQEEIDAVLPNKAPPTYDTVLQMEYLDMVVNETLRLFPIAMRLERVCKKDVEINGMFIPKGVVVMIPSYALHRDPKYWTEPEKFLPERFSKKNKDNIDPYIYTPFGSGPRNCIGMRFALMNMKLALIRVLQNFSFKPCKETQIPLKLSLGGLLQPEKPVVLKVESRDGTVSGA
Sequence of CYP2C9 (P11712 whole entry): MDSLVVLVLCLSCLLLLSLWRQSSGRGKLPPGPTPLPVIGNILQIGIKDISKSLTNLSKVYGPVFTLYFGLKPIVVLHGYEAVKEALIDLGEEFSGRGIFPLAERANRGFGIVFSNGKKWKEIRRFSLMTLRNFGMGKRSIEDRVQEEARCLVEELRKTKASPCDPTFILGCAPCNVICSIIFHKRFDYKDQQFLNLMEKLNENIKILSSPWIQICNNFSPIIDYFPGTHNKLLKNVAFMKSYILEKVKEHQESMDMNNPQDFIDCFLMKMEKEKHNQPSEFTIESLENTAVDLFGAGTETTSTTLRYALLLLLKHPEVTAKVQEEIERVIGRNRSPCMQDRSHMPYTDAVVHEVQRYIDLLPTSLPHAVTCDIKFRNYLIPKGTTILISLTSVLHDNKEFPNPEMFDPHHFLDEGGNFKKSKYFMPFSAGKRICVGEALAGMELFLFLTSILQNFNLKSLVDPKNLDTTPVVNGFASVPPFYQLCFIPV

Compound | IC50 [1] [µM] | IC50 [2] [µM] | IC50 [3] [µM] | IC50 [4] [µM]
CC(=O)N1CCN(c2ccc(OCC3COC(Cn4ccnc4)(c4ccc(Cl)cc4Cl)O3)cc2)CC1 (centres unmarked) [Ketoconazole, ketoconazole, reference compound] | 0.4 |  |  | 
CC(C)C(c1ccc2cc(-c3ccc(F)cc3)ccc2n1)n1ccnn1 (centres unmarked) [Example 4, 6-(4-Fluorophenyl)-2-(2-methyl-1-(1H-1,2,3-triazol-1-yl)propyl)quinoline] | 0.042 | 24 | 84 | 31

The remaining lines, values ahead:

IC50 [1] [µM] | IC50 [2] [µM] | IC50 [3] [µM] | IC50 [4] [µM] | Compound
0.48 | 2.9 | > 60 | 4.4 | CC(C)C(c1ccc2cc(OCC(F)(F)F)c(OCC(F)(F)F)cc2c1)n1ccnn1 (centres unmarked) [Example 2, 1-(1-(6,7-bis(2,2,2-trifluoroethoxy)naphthalen-2-yl)-2-methylpropyl)-1H-1,2,3-triazole]
0.03 | 3.2 | 19 | 5 | CC(C)C(c1ccc2cc(OCC(F)(F)F)ccc2n1)n1ccnn1 (centres unmarked) [Example 3, 2-(2-Methyl-1-(1H-1,2,3-triazol-1-yl)propyl)-6-(2,2,2-trifluoroethoxy)quinoline]
0.05 | 6.5 | 11 | 8.4 | COc1cc2ccc(C(C(C)C)n3ccnn3)cc2cc1OC (centres unmarked) [Example 1, 1-(1-(6,7-dimethoxynaphthalen-2-yl)-2-methylpropyl)-1H-1,2,3-triazole]
